These results are taken from patent US5149779A, “Humoral hypercalcemic factor antagonists” (Merck & Co., Inc., priority 1990, dated 1992).

In this test the target is T1, human osteosarcoma cell line, B10 (Homo sapiens, UniProt Q03431).
T1 construct: analyzed in a human osteosarcoma cell line, B10; endogenous in cells; host or cells: human osteosarcoma cell line B10
T1 sequence (Q03431 27-593): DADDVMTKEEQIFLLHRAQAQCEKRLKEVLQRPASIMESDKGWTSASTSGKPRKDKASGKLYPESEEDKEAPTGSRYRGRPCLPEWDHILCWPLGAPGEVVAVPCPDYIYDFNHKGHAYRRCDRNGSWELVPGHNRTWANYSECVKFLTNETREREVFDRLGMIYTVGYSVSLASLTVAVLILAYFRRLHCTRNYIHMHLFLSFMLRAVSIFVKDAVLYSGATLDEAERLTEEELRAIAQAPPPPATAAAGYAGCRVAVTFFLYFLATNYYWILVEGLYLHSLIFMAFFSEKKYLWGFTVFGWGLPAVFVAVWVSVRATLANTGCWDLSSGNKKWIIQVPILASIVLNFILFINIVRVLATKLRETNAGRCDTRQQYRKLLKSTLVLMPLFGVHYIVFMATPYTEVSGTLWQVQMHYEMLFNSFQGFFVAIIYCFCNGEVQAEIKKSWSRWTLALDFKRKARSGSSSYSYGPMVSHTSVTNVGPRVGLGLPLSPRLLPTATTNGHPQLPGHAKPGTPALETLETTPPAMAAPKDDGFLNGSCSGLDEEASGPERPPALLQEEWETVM
Nature of the test: Human bone cell (B10) adenylate cyclase assay. Format: cell-based. The method, then: HCF analogues were analyzed in a human osteosarcoma cell line, B10, for the ability to inhibit cAMP stimulation by 1 nM [Nle^8,18,Tyr^34 ]bPTH(1-34)NH2 by the method described by R. J. Majeska et al., Endocrinol., 107: 1494 (1980).

In general, Ki refers to a dissociation constant, usually derived from enzyme kinetics or from competition with a known ligand. A high value points to lower affinity. As for `CC[C@H](C)[C@H](NC(=O)[C@H](CC(C)C)NC(=O)[C@H](Cc1c[nH]cn1)NC(=O)[C@H](Cc1c[nH]cn1)NC(=O)[C@H](CC(C)C)NC(=O)[C@H](Cc1ccccc1)NC(=O)[C@H](Cc1ccccc1)NC(=O)[C@H](CCCNC(=N)N)NC(=O)[C@H](CCCNC(=N)N)NC(=O)[C@H](CCCNC(=N)N)NC(=O)[C@H](CC(C)C)NC(=O)[C@@H]1CC(=O)NCCCC[C@H](NC(=O)[C@@H](Cc2c[nH]c3ccccc23)NC(=O)[C@H](CC(C)C)NC(=O)[C@H](CC(=O)O)NC(C)=O)C(=O)N[C@@H](CO)C(=O)N[C@@H]([C@@H](C)CC)C(=O)N[C@@H](CCC(N)=O)C(=O)N1)C(=O)N[C@@H](C)C(=O)N[C@@H](CCC(=O)O)C(=O)N[C@H](C(=O)N[C@@H](Cc1c[nH]cn1)C(=O)N[C@H](C(=O)N[C@@H](C)C(N)=O)[C@@H](C)O)[C@@H](C)CC`, the inhibition constant Ki amounted to 3.6 ± 0.8 nM. `CC[C@H](C)[C@H](NC(=O)[C@H](CC(C)C)NC(=O)[C@H](Cc1c[nH]cn1)NC(=O)[C@H](Cc1c[nH]cn1)NC(=O)[C@H](CC(C)C)NC(=O)[C@H](Cc1ccccc1)NC(=O)[C@H](Cc1ccccc1)NC(=O)[C@H](CCCNC(=N)N)NC(=O)[C@H](CCCNC(=N)N)NC(=O)[C@H](CCCNC(=N)N)NC(=O)[C@H](CC(C)C)NC(=O)[C@@H]1CC(=O)NCCCC[C@H](NC(=O)[C@@H](Cc2c[nH]c3ccccc23)NC(=O)[C@H](CC(C)C)NC(=O)[C@H](CC(=O)O)NC(=O)[C@H](Cc2c[nH]cn2)NC(=O)[C@H](CC(C)C)NC(=O)[C@@H](N)CC(C)C)C(=O)N[C@@H](CO)C(=O)N[C@@H]([C@@H](C)CC)C(=O)N[C@@H](CCC(N)=O)C(=O)N1)C(=O)N[C@@H](C)C(=O)N[C@@H](CCC(=O)O)C(=O)N[C@H](C(=O)N[C@@H](Cc1c[nH]cn1)C(=O)N[C@H](C(=O)N[C@@H](C)C(N)=O)[C@@H](C)O)[C@@H](C)CC` returned a Ki of 3.2 ± 1 nM.
